Measurements taken from patent US20030134848A1, “Substituted 1-aza-2-imino-heterocycles and their use as nicotinic acetylcholin receptors activators” (priority 2000, published 2003).
Like-named read-outs stand apart in the source and are kept apart here.

What was measured:
[1] = biological target: T1, α4β2 subtype of nicotinic acetylcholine receptors (Rattus norvegicus, UniProt P09483+P12390); experiment: Binding assay at α4β2 subtype of nicotinic acetylcholine receptors ([3H]-cytisine, rat brain membrane)
T1 construct: rat brain membrane obtained from whole homogenized brain; from tissue; host or cells: whole brain of Fischer-344 male rats, membrane fraction
T1 sequence (P09483 31-630): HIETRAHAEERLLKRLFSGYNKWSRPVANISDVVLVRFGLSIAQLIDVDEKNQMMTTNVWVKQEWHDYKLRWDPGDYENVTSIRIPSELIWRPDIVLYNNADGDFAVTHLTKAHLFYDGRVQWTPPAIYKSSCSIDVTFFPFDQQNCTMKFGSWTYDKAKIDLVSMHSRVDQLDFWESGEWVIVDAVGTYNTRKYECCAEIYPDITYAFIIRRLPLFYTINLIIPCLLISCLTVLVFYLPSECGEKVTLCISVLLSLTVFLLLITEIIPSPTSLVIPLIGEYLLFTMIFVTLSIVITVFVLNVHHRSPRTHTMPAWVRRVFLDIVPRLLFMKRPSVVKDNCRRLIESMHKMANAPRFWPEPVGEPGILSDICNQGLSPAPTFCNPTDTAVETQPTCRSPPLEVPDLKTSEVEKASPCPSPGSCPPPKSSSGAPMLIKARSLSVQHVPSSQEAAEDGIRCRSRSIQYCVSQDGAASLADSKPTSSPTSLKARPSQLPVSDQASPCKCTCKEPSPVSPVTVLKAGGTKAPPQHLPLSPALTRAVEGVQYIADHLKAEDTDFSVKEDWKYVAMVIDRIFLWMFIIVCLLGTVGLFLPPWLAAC
T1 sequence (P12390 25-500): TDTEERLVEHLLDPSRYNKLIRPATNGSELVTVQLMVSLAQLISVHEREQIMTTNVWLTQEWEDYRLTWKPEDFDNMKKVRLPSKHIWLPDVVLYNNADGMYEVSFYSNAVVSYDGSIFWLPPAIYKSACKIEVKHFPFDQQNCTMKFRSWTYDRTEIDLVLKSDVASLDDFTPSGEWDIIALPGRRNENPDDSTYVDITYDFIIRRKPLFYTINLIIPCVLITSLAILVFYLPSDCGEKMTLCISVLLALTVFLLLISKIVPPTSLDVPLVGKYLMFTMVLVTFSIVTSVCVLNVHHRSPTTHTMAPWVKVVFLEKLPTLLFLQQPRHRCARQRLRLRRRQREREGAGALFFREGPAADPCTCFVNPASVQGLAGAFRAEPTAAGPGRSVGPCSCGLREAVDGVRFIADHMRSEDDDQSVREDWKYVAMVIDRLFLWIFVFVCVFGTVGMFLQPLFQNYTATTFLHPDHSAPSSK
Source text: (§1) The methods for evaluating the binding capabilities of the compounds at nicotinic acetylcholine receptors are different by subtypes of receptors. The binding capabilities of the compounds at α4β2 nicotinic acetylcholine receptors are examined using rat brain membrane obtained from whole homogenized brain, and determining the inhibiting rate of the compounds against [^3H]-cytisine binding to said brain membrane. Furthermore, the binding capabilities of the compounds at α1β1γδ nicotinic acetylcholine receptors are examined using homogenized rat muscle, and determining the inhibiting rate of the compounds against [^3H]-α-bungarotoxin binding to said muscle homogenate.
The affinity of the compounds of the present invention to α4β2 subtype of nicotinic acetylcholine receptors was performed by the following method, which was modified method described by Pabreza L. A., Dhawan S. & Kellar K. J., Mol. Pharm., 39, 9-12 (1990), and by Anderson D. J. & Arneric S. P., Eur. J. Pharm., 253, 261-267 (1994).
(1) Preparation of Rat Brain Membrane Containing α4β2 Subtype of Nicotinic Acetylcholine Receptors
Fischer-344 strain male rats (body weight: 200-240 g; 9 weeks old) obtained from Charles River Japan were used. Rats were housed in the breeding cage controlled of the room temperature at 23±1° C., and the humidity of 55±5% for 1 to 4 weeks. Rats (3 to 4 rats per a cage) were housed with lights on for 12 hours daily (from 7:00 to 19:00), and allowed free access to food and water.
Preparation of rat brain membrane containing α4β2 subtype of nicotinic acetylcholine receptors was performed as follow. That is, rat brains were isolated just after sacrificed by decapitation, washed with ice-cooled saline solution and then frozen at −80° C. with liquid nitrogen and stored till using. After thawing the frozen brain, the brain was homogenized in 10 volumes of ice-cooled buffer solution (50 mM of Tris-HCl, 120 mM of NaCl, 5 mM of KCl, 1 mM of MgCl2, 2 mM of CaCl2; pH 7.4; 4° C.) using homogenizer (HG30, Hitachi Kohki Ltd.) for 30 seconds, and the homogenate were centrifuged under 1,000×G for 10 minutes at 4° C. The resulting supernatant was separated and the pellet was homogenized again with half volume of aforementioned prior buffer solution and centrifuged under the same conditions. Combined supernatant was further centrifuged under 40,000×G for 20 minutes at 4° C. The pellet was suspended in buffer solution and used for binding assays at receptors.
(2) Experiments of α4β2 Subtype of Nicotinic Acetylcholine Receptors Binding
Suspensions of membrane pellets containing 400-600 μg of protein were added to test tubes containing test compounds and [^3H]-cytisine (2 nM) in a final volume of 200 μl and incubated for 75 minutes in ice-cooled bath. The samples were isolated by vacuum filtration onto Whatman GF/B filters, which were prerinsed with 0.5% polyethylenimine just prior to sample filtration, using Brandel multi manifold cell harvester. The filters were rapidly washed with buffer solution (3×1 ml). The filters were counted in 3 ml of clearsol I (Nacalai Tesque Inc.).
The analyses of the experimental results were conducted by using the Accufit Competition Program (Beckman Ltd.).

[2] = biological target: α1β1γδ subtype of nicotinic acetylcholine receptors (Rattus norvegicus, UniProt P18916+P25108+P25110); experiment: biochemical; assay type: binding; details: for Ki: read-out: Affinities for receptors Ki α1β1γδ, rat muscle extract, [3H]-α-Bgt 1 nM
Sequence of α1β1γδ subtype of nicotinic acetylcholine receptors (P25109 24-501): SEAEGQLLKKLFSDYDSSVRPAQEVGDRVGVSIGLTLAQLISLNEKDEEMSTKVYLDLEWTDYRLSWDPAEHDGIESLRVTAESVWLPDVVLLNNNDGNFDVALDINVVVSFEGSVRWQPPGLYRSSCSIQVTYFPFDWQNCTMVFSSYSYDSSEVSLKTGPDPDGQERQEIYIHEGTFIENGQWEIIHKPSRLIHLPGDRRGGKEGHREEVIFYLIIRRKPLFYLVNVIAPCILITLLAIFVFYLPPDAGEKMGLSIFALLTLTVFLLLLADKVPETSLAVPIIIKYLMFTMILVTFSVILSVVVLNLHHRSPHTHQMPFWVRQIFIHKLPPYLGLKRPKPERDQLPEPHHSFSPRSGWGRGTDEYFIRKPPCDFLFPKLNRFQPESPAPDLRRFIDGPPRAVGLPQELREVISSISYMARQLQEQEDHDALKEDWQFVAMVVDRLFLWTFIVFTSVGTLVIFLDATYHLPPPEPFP
Sequence of α1β1γδ subtype of nicotinic acetylcholine receptors (P25110 22-517): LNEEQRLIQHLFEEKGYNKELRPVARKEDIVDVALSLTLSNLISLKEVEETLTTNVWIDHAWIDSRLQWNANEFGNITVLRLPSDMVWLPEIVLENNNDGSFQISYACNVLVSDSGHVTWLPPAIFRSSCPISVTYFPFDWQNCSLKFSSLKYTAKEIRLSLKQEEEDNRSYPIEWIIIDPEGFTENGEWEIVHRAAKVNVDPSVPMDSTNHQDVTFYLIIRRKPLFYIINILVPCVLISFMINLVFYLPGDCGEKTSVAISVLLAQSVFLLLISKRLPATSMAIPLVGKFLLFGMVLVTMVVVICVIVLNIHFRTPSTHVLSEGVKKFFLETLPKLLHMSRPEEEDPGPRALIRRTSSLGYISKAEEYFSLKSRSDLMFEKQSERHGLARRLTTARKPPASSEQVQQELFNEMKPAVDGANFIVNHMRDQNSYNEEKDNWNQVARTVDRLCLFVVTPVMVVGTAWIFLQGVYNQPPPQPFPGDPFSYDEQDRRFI
Sequence of α1β1γδ subtype of nicotinic acetylcholine receptors (P25108 21-457): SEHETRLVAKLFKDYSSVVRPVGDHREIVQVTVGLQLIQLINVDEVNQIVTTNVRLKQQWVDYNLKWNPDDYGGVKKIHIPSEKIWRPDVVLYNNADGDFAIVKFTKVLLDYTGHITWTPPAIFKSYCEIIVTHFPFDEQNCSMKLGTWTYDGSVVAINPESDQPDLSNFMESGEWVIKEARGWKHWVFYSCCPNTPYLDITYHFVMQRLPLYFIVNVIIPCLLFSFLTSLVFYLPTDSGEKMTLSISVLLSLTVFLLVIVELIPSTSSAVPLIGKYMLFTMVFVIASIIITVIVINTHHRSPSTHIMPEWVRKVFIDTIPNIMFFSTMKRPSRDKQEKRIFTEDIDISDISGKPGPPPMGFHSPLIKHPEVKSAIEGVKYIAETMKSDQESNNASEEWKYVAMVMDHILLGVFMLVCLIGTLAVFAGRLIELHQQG
Sequence of α1β1γδ subtype of nicotinic acetylcholine receptors (P18916 23-519): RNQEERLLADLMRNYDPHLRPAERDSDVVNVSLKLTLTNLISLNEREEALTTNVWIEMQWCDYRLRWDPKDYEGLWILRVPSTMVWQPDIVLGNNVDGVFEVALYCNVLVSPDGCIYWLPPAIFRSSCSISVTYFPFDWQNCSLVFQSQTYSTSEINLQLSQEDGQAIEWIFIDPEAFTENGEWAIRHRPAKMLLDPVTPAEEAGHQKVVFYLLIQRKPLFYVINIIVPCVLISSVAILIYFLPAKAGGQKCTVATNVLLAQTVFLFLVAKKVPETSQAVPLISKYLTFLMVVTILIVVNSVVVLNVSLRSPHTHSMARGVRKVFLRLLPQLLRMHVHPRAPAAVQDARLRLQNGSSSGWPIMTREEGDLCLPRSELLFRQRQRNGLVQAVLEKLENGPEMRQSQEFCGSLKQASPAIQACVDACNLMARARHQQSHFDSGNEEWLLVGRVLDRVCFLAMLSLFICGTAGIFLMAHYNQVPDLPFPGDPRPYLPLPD
Source text: as §1
The affinity of the compounds of the present invention to α1β1γδ subtype of nicotinic acetylcholine receptors was measured by the following method, which was modified method described by Garcha H. S., Thomas P., Spivak C. E., Wonnacott S. & Stolerman I. P., Psychropharmacology, 110, 347-354 (1993).
(1) Preparation of Rat Skeletal Muscles Containing α1β1γδ Subtype of Nicotinic Acetylcholine Receptors
The substantially same animals described in the Biological Experiment 1 were used.
The isolation of α1β1γδ subtype of nicotinic acetylcholine receptors was performed as follow. That is, rat posterior skeletal muscles were isolated just after sacrificed by decapitation, washed with ice-cooled saline solution and then frozen at −80° C. with liquid nitrogen and stored till using. After thawing the frozen muscles, tissue was homogenized (40% w/v) with buffer solution [2.5 mM of sodium phosphate buffer (pH:7.2), 90 mM of NaCl, 2 mM of KCl, 1 mM of EDTA, 2 mM of benzamidine, 0.1 mM of benzethonium chloride, 0.1 mM of PMSF, 0.01% of sodium azide] in Waring blender (Waring blender 34BL97; WARING PRODUCTS DIVISION DYNAMICS CORPORATION OF AMERICA) for 60 seconds. The homogenate were centrifuged under 20,000×G for 60 minutes at 4° C. The supernatant was separated and the resulting pellet was added to the same buffer (1.5 ml/g wet weight), and homogenized under the same conditions. Triton X100 (2% w/v) was added and the mixture was stirred for 3 hours at 4° C. The centrifugation at 100,000×G for 60 minutes at 4° C. yielded the rat muscle extract as supernatant. This was stored at 4° C. for up to 4 weeks, and used for binding assays at receptors.
(2) Experiments of α1β1γδ Subtype of Nicotinic Acetylcholine Receptors Binding
Receptors binding experiments were performed as follow. That is, the extract of rat muscle containing 600-900 μg of protein was added to test tubes containing test compounds and incubated for 15 minutes at 37° C. Then, to this mixture was added 1 nM of [^3H]-α-bungarotoxin (α-Bgt) and further incubated for 2 hours. The samples were isolated by vacuum filtration onto Whatman GF/B filters, which were prerinsed with 0.5% polyethylenimine just prior to sample filtration, using Brandel multi manifold cell harvester. The filters were rapidly rinsed with washing solution (10 mM of KH2PO4, 150 mM of NaCl, pH 7.2, room temperature) (5×1 ml). The filters were counted in 3 ml of clearsol I (Nacalai Tesque Inc.). The determination of nonspecific binding was incubated in the presence of 1 μM α-Bgt. The solutions containing α-Bgt (labeled/non-labeled) were prepared by using buffer solution containing 0.25% of BSA. In the receptor binding experiments, said buffer solution was added for adjusting the final concentration of BSA to be 0.05%.
The analyses of the experimental results were conducted by the same way as described in the Biological Experiment 1.

[3] = read-out: control % of [3H]-α-Bgt binding
[4] = rat brain membrane, [3H]-cytisine 2 nM, read-out: Affinities for receptors Ki α4β2

Nc1nccn1CCc1cnc(Cl)s1 [Compound 23, 2-amino-1-[2-(2-chloro-5-thiazolyl)ethyl]imidazole]
Ki [1]: 0.0085 µM | Ki [2]: 44 µM

Nc1nccn1CCc1cnccn1 [Compound 31, 2-amino-1-[2-(2-pyrazinyl)ethyl]imidazole]
remaining activity at 1 µM ([1]; 1 μM of test compound, rat brain membrane, read-out: control % of [3H]-cytisine binding): 75% | remaining activity at 10 µM ([1]; 10 μM of test compound, rat brain membrane, read-out: control % of [3H]-cytisine binding): 22% | remaining activity at 100 µM [2, 3]: 110% | remaining activity at 1000 µM [2, 3]: 53%

Cc1ccc(CCn2ccnc2N)cn1 [Compound 11, 2-amino-1-[2-(6-methyl-3-pyridyl)ethyl]imidazole]
Ki [1, 4]: 0.021 µM | Ki [2]: 1150 µM

Nc1nccn1CCc1cccnc1 [Compound 14, 2-amino-1-[2-(3-pyridyl)ethyl]imidazole]
Ki [1, 4]: 0.0035 µM | Ki [2]: 223 µM

Nc1nccn1CCc1ccnnc1 [Compound 34, 2-amino-1-[2-(4-pyridazinyl)ethyl]imidazole]
Ki [1, 4]: 0.068 µM | Ki [2]: 1270 µM

Cc1cncc(CCn2ccnc2N)c1 [Compound 27, 2-amino-1-[2-(5-methyl-3-pyridyl)ethyl]imidazole]
Ki [1, 4]: 0.021 µM | Ki [2]: 339 µM

Nc1nccn1CCc1cncc(Br)c1 [Compound 25, 2-amino-1-[2-(5-bromo-3-pyridyl)ethyl]imidazole]
Ki [1, 4]: 0.002 µM | Ki [2]: 36 µM

N=C1NCCCN1CCc1ccc(Cl)nc1 [Compound 12, 1-[2-(6-chloro-3-pyridyl)ethyl]-2-imino-1,2,3,4,5,6-hexahydro-pyrimidine]
Ki [1]: 0.0014 µM | Ki [2]: 12 µM

Nc1nccn1CCc1cncnc1 [Compound 29, 2-amino-1-[2-(5-pyrimidyl)ethyl]imidazole]
Ki [1]: 0.006 µM | Ki [2]: 447 µM

Nc1nccn1CCc1cccnn1 [Compound 30, 2-amino-1-[2-(3-pyridazinyl)ethyl]imidazole]
Ki [1, 4]: 0.04 µM | Ki [2]: 80 µM

Nc1nccn1CCc1cnc(Cl)c(Cl)c1 [Compound 13, 2-amino-1-[2-(5,6-dichloro-3-pyridyl)ethyl]-imidazole]
Ki [1]: 0.0031 µM | Ki [2]: 40 µM
